Patent US9845302B2, “Anticancer compounds and process for the preparation thereof” (Council of Scientific and Industrial Research, priority 2013, dated 2017)

Experiments:
HL60-HUVEC cell adhesion = HL60-HUVEC cell adhesion inhibition, 8 point dose dependent assay (TNF-α stimulated, Calcein AM fluorometric); format: cell-based; settings: Homo sapiens; HUVEC dosed 2 hours with compound, 100 ng/mL TNF-α 4 hours, HL60 co-culture 30 mins
Method: Determination of Cell Adhesion Inhibition
An 8 point dose dependent assay was carried out to assess the IC50's of the test compounds.
10,000 HUVEC cells/well (passage number. 8) was seeded into a 96 well black clear bottom plate and cells were cultured for 4 days at 37° C. After the cell culture, HUVEC's were dosed with test compound and reference compound (peribysin E) at a top concentration of 100 μM (1:3 step down dilution-8 concentrations) and cells were cultured for 2 hours at 37° C. HUVEC's were treated with/without 100 ng/mL of TNF-α further cultured for 4 hours at 37° C. 100,000 HL60 cells/well (passage number. 16) was loaded with Calcein AM dye and co-cultured with HUVECs, and cells were cultured for 30 mins at 37° C. HL60-HUVEC cell adhesion was detected by a fluorometric method using a BMG Polarstar. (IC50=inhibition concentration at 50%). HL60-HUVEC Cell Adhesion-IC50 Assessment of Compound

[1] = system: adhesion of leukemia HL-60 cells to human-umbilical-vein endothelial cells (HUVEC); settings: HL-60 cells to HUVEC; background statement; cited from earlier work

Structure (SMILES)	IC50 (HL60-HUVEC cell adhesion) [µM]	cell adhesion inhibitory activity [1]
C=C1CO[C@@H](OC)[C@]12C[C@@H]1CCC[C@@H](C)[C@]1(C)[C@H]2O (racemic) [Compound 20, (1′R,2R,2′R,3a′S,7′R,7a′S)-2-methoxy-7′,7a′-dimethyl-4-methylenedecahydro-2H-spiro[furan-3,2′-inden]-1′-ol]	11	–
C=C1CO[C@@H](OC)[C@]12C[C@@H]1[C@@H]3O[C@@H]3C[C@@H](C)[C@]1(C)[C@H]2O (racemic) [Compound 10, (1a′R,2R,3R,3′R,3a′S,4′R,6a′S,6b′S)-2-methoxy-3′,3a′-dimethyl-4-methylenedecahydro-2H-spiro[furan-3,5′-indeno[4,5-b]oxiren]-4′-ol]	15.8	–
C=C1CO[C@@H](OC)[C@]12C[C@@H]1[C@H](O)CC[C@@H](C)[C@]1(C)[C@H]2O (racemic) [Compound 11b, (1′R,2R,2′R,3a′S,4′R,7′R,7a′S)-2-methoxy-7′,7a′-dimethyl-4-methylenedecahydro-2H-spiro[furan-3,2′-indene]-1′,4′-diol]	4.28	–
C=C1CO[C@@H](OC)[C@]12C[C@@H]1C[C@@H](O)C[C@@H](C)[C@]1(C)[C@H]2O (racemic) [Peribysin E, (1′R,2R,2′R,3a′R,5′S,7′R,7a′S)-2-methoxy-7′,7a′-dimethyl-4-methylenedecahydro-2H-spiro[furan-3,2′-indene]-1′,5′-diol, reference compound]	6.9 to 12.2	inhibit adhesion of leukemia HL-60 cells to human-umbilical-vein endothelial cells (HUVEC)
C=C1CO[C@@H](OC)[C@]12C[C@@H]1C=CC[C@@H](C)[C@]1(C)[C@H]2O (racemic) [Compound 9, (2R,2′R,3′R,3a′S,4′R,7a′R)-2-methoxy-3a′,4′-dimethyl-4-methylene 1′,3′,3a′,4,4′,5,5′,7a′-octahydro-2H-spiro[furan-3,2′-inden]-3′-ol]	18.7	–
C=C1CO[C@@H](OC)[C@]12C[C@@H]1[C@@H](O)CC[C@@H](C)[C@]1(C)[C@H]2O (racemic) [Compound 11c, (1′R,2R,2′R,3a′S,4′S,7′R,7a′S)-2-methoxy-7′,7a′-dimethyl-4-methylenedecahydro-2H-spiro[furan-3,2′-indene]-1′,4′-diol]	13.8	–
C=C1CO[C@@H](OC)[C@]12C[C@@H]1C[C@H](O)C[C@@H](C)[C@]1(C)[C@H]2O (racemic) [Compound 11a, (1′R,2R,2′R,3a′R,5′R,7′R,7a′S)-2-methoxy-7′,7a′-dimethyl-4-methylene decahydro-2H-spiro[furan-3,2′-indene]-1′,5′-diol]	10.4	–
C=C1CO[C@@H](OC)[C@]12C[C@@H]1C[C@@H](O)C[C@@H](C)[C@]1(C)[C@H]2O [(−)-peribysin E]	–	more potent activity than the gold standard herbimycin
